Data: US20230337668A1, “COMPOSITION” (GIVAUDAN SA, priority 2020, published 2023)

System: Bacillus subtillis
Experiment: microorganisms counting in inoculated fish matrix (fish model)
Conditions: D14, 25° C., positive control at 0.3%, average of two determinations
Experimental: Fish matrix was made of fish and water (50/50), without preservatives. The matrix was homogenized in a blade mixer grinder and then sterilized at 121° C. for 20 minutes, prior the tests.
Blends were added at 0.5 % into the matrix. Matrices without preservatives (0.5 % of NaCl 0.9%) and matrices with conventional chemical preservatives (0.3% of sodium lactate or potassium nitrite, separately) were used as negative and positive control, respectively.
Each matrix type was portioned into sterile flasks and inoculated with 3 Log CFU/g of different microorganisms, separately. Each flask corresponds to one sample at a given date of analysis.
The inoculated matrices were incubated at 25° C.
The counting of the microorganisms was determined in specific agar medium.

SMILES	Bacillus subtillis spores (Bacillus subtillis totaux - Bacillus subtillis vegetative cells)	Bacillus subtillis totaux (vegetative cells + spores)
O=N[O-].[K+] [Potassium nitrite]	2.39 Log CFU/g	2.60 Log CFU/g
CC(O)C(=O)[O-].[Na+] (stereo not shown) [Sodium lactate]	2.35 Log CFU/g	2.90 Log CFU/g
